One block for each compound: values may come before it.
Key:
[1] = Ratio of drug concentration in brain to plasma in mouse assessed as unbound fraction; format: ADME, cell-free; conditions: brain and plasma, read-out: K(p,uu,brain)
[2] = Ratio of drug concentration in brain to plasma in mouse; format: ADME, cell-free; conditions: brain and plasma, read-out: BPR
[3] = Ratio of drug concentration in CSF to plasma in mouse assessed as unbound fraction; format: ADME, tissue-based; conditions: CSF and plasma
[4] = Ratio of drug concentration in brain to plasma in rat; format: ADME, cell-free; conditions: brain and plasma, read-out: BPR
[5] = Ratio of AUC in brain to plasma in rat at 25 mg/kg, po; format: ADME, organism-based; conditions: brain and plasma, read-out: Ratio AUC
[6] = Ratio of drug concentration in brain to plasma in mouse at 75 mg/kg, po; format: ADME, organism-based; conditions: brain and plasma, read-out: BPR
[7] = Ratio of AUC (0 to 24 hrs) in brain to plasma in mouse; format: ADME, cell-free; conditions: brain and plasma, read-out: Ratio AUC
[8] = Ratio of drug concentration in brain to plasma in rat at 3.5 mg/kg, iv; format: ADME, organism-based; conditions: brain and plasma, read-out: BPR
[9] = Ratio of AUC in brain to plasma in rat at 75 mg/kg, po; format: ADME, organism-based; conditions: brain and plasma, read-out: Ratio AUC

Structure (SMILES): CCN1CCN(Cc2ccc(Nc3ncc(F)c(-c4cc(F)c5nc(C)n(C(C)C)c5c4)n3)nc2)CC1 [ABEMACICLIB]
Kp uu [1]: 0.2

Structure (SMILES): Cc1ccc(C(=O)Nc2ccc(CN3CCN(C)CC3)c(C(F)(F)F)c2)cc1C#Cc1cnc2cccnn12 [PONATINIB]
Kp [2]: 1.6

Structure (SMILES): COc1cc2ncnc(Nc3ccc(F)c(Cl)c3)c2cc1OCCCN1CCOCC1 [GEFITINIB]
Kp uu [1]: 0.02
Kp uu [3]: 0.09

Structure (SMILES): COc1cc(Nc2c(C#N)cnc3cc(OCCCN4CCN(C)CC4)c(OC)cc23)c(Cl)cc1Cl [BOSUTINIB]
Kp [4]: 0.4

Structure (SMILES): COc1cc2c(Oc3ccc(NC(=O)C4(C(=O)Nc5ccc(F)cc5)CC4)cc3F)ccnc2cc1OCCCN1CCOCC1 [FORETINIB]
Kp [2]: 0.2

Structure (SMILES): CC[C@H](CO)Nc1nc(NCc2ccccc2)c2ncn(C(C)C)c2n1 [SELICICLIB]
Kp [5]: 0.3

Structure (SMILES): Cc1cc(Nc2ncnc3ccc(NC4=NC(C)(C)CO4)cc23)ccc1Oc1ccn2ncnc2c1 [TUCATINIB]
Kp [6]: 0.5

Structure (SMILES): CN[C@@H]1C[C@H]2O[C@@](C)([C@@H]1OC)n1c3ccccc3c3c4c(c5c6ccccc6n2c5c31)C(=O)N[C@H]4O [UCN-01]
Kp [8]: 0.5

Second part, the compound after the results:

Kp [7]: 0.72
Structure (SMILES): COc1cc(N2CCC(N3CCN(C)CC3)CC2)ccc1Nc1ncnc(Nc2ccccc2S(=O)(=O)C(C)C)n1 [ASP-3026]

Kp [9]: 0.24
Structure (SMILES): CC(C)(O)CC(=O)NCCn1ccc2ncnc(Nc3ccc(Oc4cccc(C(F)(F)F)c4)c(Cl)c3)c21 [TAK-285]
